The structures appear in SMILES notation.

The text below walks through data of PubChem BioAssay AID2305 (GlaxoSmithKline (GSK), 2010).

This assay relates to P. falciparum 3D7 growth, pLDH absorbance. The assay is described as follows: P. falciparum 3D7 growth inhibition, dose response, strain 3D7 (AID 2305).

Turning to `CCN(c1ccccc1)S(=O)(=O)c1ccc(OC)c(NC(=O)c2cccc(C(F)(F)F)c2)c1`, the IC50 – broadly, the midpoint of a concentration-inhibition curve – was 880 nM.

`COc1ccc(CNCc2ccccc2)cc1-c1ccc(OC)c(S(=O)(=O)NCCN2CCCC2)c1`: the IC50 is 830 nM.

On to `COc1cc(NC(=O)N2CCOC(CCN3CCC(c4ccccc4)CC3)(c3ccc(Cl)c(Cl)c3)C2)cc(OC)c1OC` (stereo not drawn), for which the IC50 came out at 70 nM.

In turn, `c1cc(CN2CCN(CCN3CCOCC3)CC2)cc(-c2csc(-c3nc4ccccc4[nH]3)c2)c1` returned an IC50 of 450 nM.

Regarding `OCCN1CCN(Cc2ccc(-c3ccc(-c4nc5ccc(C(F)(F)F)cc5[nH]4)s3)cc2)CC1`, the IC50 amounted to 380 nM.

As for `O=C(Nc1ccccc1)c1ccc(N2CCC(COc3cccc(C(F)(F)F)c3)CC2)nc1`, the IC50 was 300 nM.

Turning to `COc1ccc2nccc([C@@H](O)CN3CCC(NCCOc4ccccc4C(F)(F)F)CC3)c2c1`, the IC50 was determined as 750 nM.

Compound `COc1ccc(C=NNc2cc(C)nc3ccc(OC)cc23)c(OC)c1` registered an IC50 of 780 nM.

As to `O=C(Cc1cnc[nH]1)Nc1cccc(-c2ccc(-c3nc4ccc(F)cc4[nH]3)s2)c1`, the IC50 was found to be 660 nM.

For the compound `COc1ccc(-c2ccc(NC(=O)c3cccc(Cl)c3)cc2)cc1CN1CCN(C)CC1`, the IC50 is 950 nM.

Turning to `Cc1ccc(C)c(N2CCN(Cc3ccccc3O)CC2)c1`, the IC50 amounted to 940 nM.

For the compound `CCc1c(C)c2ccc3c(c2oc1=O)CN(CCc1ccc(F)cc1)CO3`, the IC50 amounted to 1230 nM.

For the compound `O=C(Nc1ccc(N2CCCCC2)c(Cl)c1)c1ccco1`, the IC50 came out at 410 nM.

In turn, `c1cc(CNCC2CCN(CC3CCCCC3)CC2)cc(-n2ccnc2)c1` yielded an IC50 of 540 nM.

For the compound `Cc1cccc2[nH]c(-c3cccc(-c4cccc(CN5CCN(c6ccc(C#N)cn6)CC5)c4)c3)nc12`, the IC50 is 1160 nM.

For the compound `COc1cccc(CCNCCCCCCNCCc2ccc(Cl)cc2)c1`, the IC50 is 1010 nM.

The compound `O=C(Nc1ccnc(-c2cccnc2)n1)c1cc(C(F)(F)F)cc(C(F)(F)F)c1` came in with an IC50 of 820 nM.

`O=C(Cn1c(SCc2cccc(F)c2F)cc(=O)c2ccccc21)N(CCCn1ccnc1)Cc1ccc(-c2ccc(C(F)(F)F)cc2)cc1` came in with an IC50 of 1320 nM.

Consider `CCN(CC)CCCN(C(=O)Nc1ccc(C#N)cc1)c1nc(-c2ccc(F)cc2)cs1`, for which the half-inhibitory concentration (IC50) is 650 nM.

On to `NC(=O)c1ccccc1Nc1nc(Nc2ccn[nH]2)ncc1Cl`, for which the IC50 is 960 nM.

For the compound `CC(C)c1ccc(NC(=O)c2ccc(C(=O)NC3CCN(Cc4ccccc4)CC3)cc2)cc1`, the IC50 was determined as 980 nM.

Regarding `CCOc1ccc(C=CC(=O)Nc2ccc3nc(N4CCN(C)CC4)cc(C)c3c2)cc1OC`, the IC50 stood at 400 nM.

`O=C(Nc1ccc(-c2cccc(-c3nc4ccc(F)cc4[nH]3)c2)cc1)Nc1ccc(Cl)c(Cl)c1` returned an IC50 of 650 nM.

Take `Clc1ccc2c(NCc3ccccc3)ccnc2c1`: the IC50 turned out to be 340 nM.

`COc1nc(-n2ccc(=N)cc2)nc2ccccc12`: the IC50 was found to be 1060 nM.

With `CCN(CC)CCN(Cc1ccc(-c2ccc(C(F)(F)F)cc2)cc1)C(=O)Cn1c(CCc2cccc(F)c2F)c(C)c(=O)c2ccccc21`, the IC50 is 940 nM.

Compound `CC(C)COc1ccc(Cl)cc1Cc1nc(-c2nc3c(CN4CCN(C)CC4)cccc3[nH]2)cs1` displayed an IC50 of 1330 nM.

`CCc1ccc(NC(=O)c2ccc(CN3CCCN(Cc4cccc(C)c4)CC3)cc2)cc1` registered an IC50 of 1130 nM.

In turn, `O=C(CN1CCCC1)Nc1cccc(C(=O)Nc2cccc(C(F)(F)F)c2)c1` displayed an IC50 of 510 nM.

As for `NCC1CCCN1Cc1ccc(-c2cccc(-c3nc4ccc(F)cc4[nH]3)c2)cc1` (stereo not drawn), the IC50 amounted to 750 nM.

In turn, `O=C(Nc1ccc(-c2nc3ccccc3[nH]2)cc1)c1cccc(S(=O)(=O)N2CCCC2)c1` gave a half-inhibitory concentration (IC50) of 740 nM.

Compound `O=C(Nc1ccc(C(F)(F)F)cc1)Nc1cccc([N+](=O)[O-])c1` returned an IC50 of 870 nM.

`COc1cc(OC)cc(-c2nn(-c3ccc([N+](=O)[O-])cc3C#N)c(=S)n2Cc2ccco2)c1` displayed an IC50 of 580 nM.

For `CCCNCc1c(O)ccc2c(CNCCC)c(O)ccc12`, the IC50 was determined as 600 nM.

Compound `Cc1cccc2[nH]c(-c3cccc(-c4cccc(NC(=O)c5cn(C)c(=O)n5C)c4)c3)nc12` came in with an IC50 of 500 nM.

On to `Cc1noc(C)c1-c1cccc(CNCc2ccc(-c3cccc(-c4nc5ccccc5[nH]4)c3)cc2)c1`, for which the IC50 is 570 nM.

For `CCCc1ccc(C2CCN(CCCCNC(=O)c3ccc(NC(=O)c4ccc(Cl)cc4)cc3)CC2)cc1`, the IC50 amounted to 630 nM.

As to `O=C(c1cc(-c2ccccc2O)on1)N1CCN(C(c2ccccc2)c2ccccc2)CC1`, the IC50 turned out to be 340 nM.

Regarding `N#Cc1ccc(-c2ccc(C(=O)NCCCCN3CCC(c4ccc5c(c4OCc4ccccn4)CCCC5)CC3)cc2)cc1`, the IC50 was found to be 820 nM.

`O=C(/C=C/c1ccc(C(F)(F)F)cc1)NCCCCCN1CCC(c2c[nH]c3ccccc23)CC1` gave an IC50 of 680 nM.

For `COc1ccc2nccc(N3CCC(NCCNCc4cc5c(cn4)OCCO5)C3)c2n1` (stereo not drawn), the IC50 stood at 580 nM.

The compound `O=C(Nc1ccc(Cl)cc1Cl)N[C@H]1CCN(CCCCCNC(=O)[C@@H]2C[C@H]2c2ccc(Cl)c(Cl)c2)C1` came in with an IC50 of 990 nM.

As for `Nc1nc(N)c2c(ccc3c2ncn3Cc2ccccc2)n1`, the IC50 amounted to 90 nM.

Turning to `CCCCSc1nc2c(c(=O)n1Cc1ccco1)C1(CCCCC1)Cc1ccccc1-2`, the IC50 turned out to be 960 nM.

Compound `CC(C)(C)C1CCC(C(=O)c2ccc3ccccc3c2O)CC1` (stereo not drawn) yielded an IC50 of 750 nM.

With `Cc1cc(Nc2cccc(Cl)c2)nc2ccc(NC(=O)c3ccc(=O)[nH]c3)cc12`, the IC50 is 1000 nM.

`CC1CCC(NCc2ccc3c(CNC4CCC(C)CC4)c(O)ccc3c2O)CC1` (stereo not drawn): the IC50 is 120 nM.

Consider `COc1ccc2nccc(NN=Cc3ccncc3)c2c1`, for which the IC50 stood at 580 nM.

For `Cc1cc(CN2CCN(CCOC(c3ccccc3)c3ccccc3)CC2)ccc1O`, the IC50 came out at 930 nM.

Take `c1ccc(CN2CCC(NCc3ccccc3-c3ccc(CNC4CCCC4)cc3)CC2)cc1`: the IC50 was found to be 910 nM.

In turn, `C=CCc1ccc(C[C@H](NC(=O)OC(C)(C)C)C(=O)OC)cc1` came in with an IC50 of 810 nM.

On to `COCC(=O)N(Cc1ccccc1-c1cccc(CNCc2ccc3c(c2)OCO3)c1)C1CCN(Cc2ccccc2)CC1`, for which the IC50 is 840 nM.

`OCCN1CCN(C2Cc3ccc(F)cc3Sc3ccc(Cl)cc32)CC1` (stereo not drawn) yielded an IC50 of 880 nM.

The compound `Cc1ccc(-n2ncc(C(=O)Nc3cc(Cl)cc(Cl)c3)c2C2CCNCC2)cc1C` displayed an IC50 of 550 nM.

For `COc1cc2nccc(Nc3ccc(Oc4ccccc4)cc3)c2cc1OC`, the IC50 was 680 nM.

For `CCOC(C(=O)OCC1CCCN1C(C)C)(c1ccccc1)c1ccccc1` (stereo not drawn), the IC50 came to 760 nM.

For the compound `COc1ccccc1C1CCN(C2CCC(NC(=O)/C=C/c3cc(F)cc(F)c3)CC2)CC1` (stereo not drawn), the IC50 was 1110 nM.

For the compound `O=C(C=Cc1cccc(F)c1)NC1CCC(CCN2CCc3ccc(-c4cnccn4)cc3CC2)CC1` (stereo not drawn), the IC50 was determined as 450 nM.

`COc1ccc(N2CCN(c3nc(Nc4ccc(NC(C)=O)cc4)nc(N4CCCC4)n3)CC2)cc1` returned an IC50 of 980 nM.

`CC[C@H]1CN2CC[C@H]1C[C@H]2[C@H](O)c1cc(-c2cccc(Cl)c2)nc2ccc(OC)cc12` registered an IC50 of 170 nM.

Take `CCc1ccc(NC(=O)c2cccc(CN3CCCN(Cc4cccc(O)c4)CC3)c2)cc1`: the IC50 came to 890 nM.

In turn, `O=C(/C=C/c1ccc(Cl)c(Cl)c1)NCCCCCN1CCCN(C(=O)Nc2ccc([N+](=O)[O-])cc2)CC1` returned an IC50 of 620 nM.

Regarding `CC1(C)[C@H]2CC[C@@H](CNc3nc(NCCc4cnc[nH]4)nc(Nc4ccc5c(c4)OCO5)n3)[C@@H]1C2`, the IC50 was found to be 540 nM.
